In US20130178475A1, “sGC STIMULATORS” (IRONWOOD PHARMACEUTICALS, INC., priority 2010, published 2013):

Target: T1, soluble guanylate cyclase (sGC) (Homo sapiens, UniProt Q02108+Q02153)
T1 construct: endogenously expressing soluble guanylate cyclase (sGC); endogenous in cells; host or cells: HEK293
T1 sequence (Q02153 1-619): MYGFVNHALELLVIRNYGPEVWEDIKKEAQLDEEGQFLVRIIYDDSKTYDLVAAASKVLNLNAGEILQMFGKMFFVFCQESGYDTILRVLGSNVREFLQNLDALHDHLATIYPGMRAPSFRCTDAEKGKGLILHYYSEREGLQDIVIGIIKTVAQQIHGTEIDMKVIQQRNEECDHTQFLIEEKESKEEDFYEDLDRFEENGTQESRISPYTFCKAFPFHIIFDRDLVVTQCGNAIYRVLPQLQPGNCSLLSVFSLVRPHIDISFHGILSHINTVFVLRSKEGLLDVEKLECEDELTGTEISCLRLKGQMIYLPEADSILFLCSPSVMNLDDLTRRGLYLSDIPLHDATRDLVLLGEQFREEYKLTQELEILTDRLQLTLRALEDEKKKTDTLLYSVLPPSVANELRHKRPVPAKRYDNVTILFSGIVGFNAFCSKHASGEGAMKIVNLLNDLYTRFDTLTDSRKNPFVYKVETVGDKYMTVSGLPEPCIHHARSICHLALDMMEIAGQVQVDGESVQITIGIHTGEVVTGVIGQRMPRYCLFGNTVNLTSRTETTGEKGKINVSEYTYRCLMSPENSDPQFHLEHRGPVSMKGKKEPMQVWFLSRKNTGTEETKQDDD
T1 sequence (Q02108 1-690): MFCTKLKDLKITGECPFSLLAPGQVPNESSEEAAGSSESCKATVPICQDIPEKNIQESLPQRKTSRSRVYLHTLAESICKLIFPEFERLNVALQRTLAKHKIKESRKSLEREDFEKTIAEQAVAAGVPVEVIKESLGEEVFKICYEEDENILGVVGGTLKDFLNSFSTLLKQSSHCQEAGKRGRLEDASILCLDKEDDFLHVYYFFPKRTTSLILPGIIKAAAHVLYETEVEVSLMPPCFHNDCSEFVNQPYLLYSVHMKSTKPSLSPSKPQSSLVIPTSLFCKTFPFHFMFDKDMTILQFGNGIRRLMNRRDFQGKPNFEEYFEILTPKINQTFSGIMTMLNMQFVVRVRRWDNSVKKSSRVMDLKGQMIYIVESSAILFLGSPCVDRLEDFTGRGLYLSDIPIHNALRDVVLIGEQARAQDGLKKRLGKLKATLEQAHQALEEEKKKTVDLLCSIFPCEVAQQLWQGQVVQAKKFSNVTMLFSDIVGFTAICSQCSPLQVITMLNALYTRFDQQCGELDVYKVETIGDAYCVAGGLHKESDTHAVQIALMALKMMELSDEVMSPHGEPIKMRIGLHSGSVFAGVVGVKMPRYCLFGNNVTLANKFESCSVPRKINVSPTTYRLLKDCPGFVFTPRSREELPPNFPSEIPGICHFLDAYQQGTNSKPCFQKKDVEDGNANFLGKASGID
Assay: sGC-HEK-cGMP assay
Type: cell-based
Details: HEK293 cells, 10 min incubation, intracellular cGMP by LC/MS; for Increase in cGMP Concentration Tested at 10 μM in HEK Assay: test compound 10 μM; for Increase in cGMP Concentration Tested at 30 μM in HEK Assay: test compound 30 μM
Description: Human embryonic kidney cells (HEK293), endogenously expressing soluble guanylate cyclase (sGC), were used to evaluate the activity of test compounds. Compounds stimulating the sGC receptor should cause an increase in the intracellular concentration of cGMP. […] Cells were then incubated for 15 minutes at 37° C. with 0.5 mM 3-isobutyl-1-methylxanthine (2004). Test article was then added to the assay mixture (2 μL) and incubated at 37° C. for 10 minutes. After the 10 minute incubation, the assay mixture was aspirated and 0.1M HCl (2004) was added to the cells. The plate was incubated at 4° C. for 30 minutes in the 0.1M HCl to stop the reaction and lyse the cells. The plates were then centrifuged at 1,200 g for 5 minutes at room temperature. Supernatants were collected and transferred to a new flat bottom 96 well plate for analysis. Vehicle controls were carried out using DMSO (1%). A known sGC stimulator, BAY 41-2272, was used as the positive control.
Samples were diluted with an equal volume of 1 M Ammonium Acetate (pH 7) to neutralize samples for better chromatography. A 2×cGMP standard curve was prepared in 0.1 M HCl and then diluted with an equal volume of 1 M Ammonium Acetate, with the following final concentrations in nM: 1024, 512, 256, 128, 64, 32, 16, 8, 4, 2, 1.
cGMP concentrations were determined from each sample using the LC/MS conditions (Table 2 below) and calculated standard curve. EC50 values were calculated from concentration-response curves generated with GraphPad Prism Software.

SMILES	Increase in cGMP Concentration Tested at 10 μM in HEK Assay	Increase in cGMP Concentration Tested at 30 μM in HEK Assay
CC1(C)CC(=O)c2c(-c3ncccn3)nn(Cc3ccccc3F)c2C1 [Compound I-20]	A (A represents no increase or an increase ranging from more than 0 fold to less than 5 fold)	A (A represents no increase or an increase ranging from more than 0 fold to less than 5 fold)
COC(=O)N(Cc1ccccc1F)c1c(N)nc(-c2nn(Cc3ccccc3F)c3c2CCCC3)nc1N [Compound I-23]	C (C represents an increase ranging from 10 fold to less than 20 fold)	C (C represents an increase ranging from 10 fold to less than 20 fold)
c1cnc(-c2nn(Cc3cccc4ccsc34)c3c2CCCC3)nc1 [Compound I-10]	B (B represents an increase ranging from 5 fold to less than 10 fold)	B (B represents an increase ranging from 5 fold to less than 10 fold)
Fc1ccccc1Cn1nc(-c2ccncc2)c2c1CCCC2 [Compound I-49, 1-(2-fluorobenzyl)-3-(pyridin-4-yl)-4,5,6,7-tetrahydro-1H-indazole]	A (A represents no increase or an increase ranging from more than 0 fold to less than 5 fold)	A (A represents no increase or an increase ranging from more than 0 fold to less than 5 fold)
Nc1nc(-c2nn(Cc3ccccc3F)c3c2CCCC3)nc(N)c1N1CCOC1=O [Compound I-26]	A (A represents no increase or an increase ranging from more than 0 fold to less than 5 fold)	B (B represents an increase ranging from 5 fold to less than 10 fold)
Nc1nc(-c2nn(Cc3ccccc3F)c3c2CCC3)nc(N)c1N [Compound I-35]	A (A represents no increase or an increase ranging from more than 0 fold to less than 5 fold)	A (A represents no increase or an increase ranging from more than 0 fold to less than 5 fold)
c1cnc(-c2nn(Cc3cccc4ccccc34)c3c2CCCC3)nc1 [Compound I-11]	A (A represents no increase or an increase ranging from more than 0 fold to less than 5 fold)	A (A represents no increase or an increase ranging from more than 0 fold to less than 5 fold)
CC1(C)C=Cc2c1c(-c1nccc(N)n1)nn2Cc1ccccc1F [Compound I-28]	B (B represents an increase ranging from 5 fold to less than 10 fold)	C (C represents an increase ranging from 10 fold to less than 20 fold)
CC1(C)CCCc2c(-c3ncccn3)nn(Cc3ccccc3F)c21 [Compound I-16]	A (A represents no increase or an increase ranging from more than 0 fold to less than 5 fold)	B (B represents an increase ranging from 5 fold to less than 10 fold)
COC(=O)Nc1c(N)nc(-c2nn(Cc3ccccc3F)c3c2CCC3)nc1N [Compound I-36]	C (C represents an increase ranging from 10 fold to less than 20 fold)	B (B represents an increase ranging from 5 fold to less than 10 fold)
COc1cccc(C(=O)N2CCc3c(c(-c4ncccn4)nn3Cc3ccccc3F)C2)c1 [Compound I-58]	A (A represents no increase or an increase ranging from more than 0 fold to less than 5 fold)	
